Laboratory results published in US20040116656A1, “Memory-enhancing peptides and the use thereof” (priority 2000, published 2004).

System: learning and memory process of mouse (memory and learning impediment induced by scopolamine)
Assay: Step-down platform electrical-shock avoidance test of learning and memory (RT, EN) in scopolamine-treated mice
Type: in vivo
Conditions: for Memory Results EN / Learning Results EN / Memory Results RT / Learning Results RT: scopolamine 1 mg/kg; for Memory Results EN / Memory Results RT: memory test 24 hrs later; for Learning Results EN / Learning Results RT: training trial
Procedure: The pharmacological tests of memory-enhancing peptide in this invention have been performed as following: the animals have been divided into three groups: drug administration group, control group and model group, with each group administrated with memory-enhancing peptide, saline and scopolamine respectively. In the test, the groups except control group were injected with scopolamine after the administration of medicine about 50 min., 10 min. later, the training began. First, the animals will be put into reaction box for 3 min. before each trails to familiarize them with the environment. Then, the reaction box are charged with 36V alternating current. When the animal subjects to electrical shock, it will jump up to the central platform to avoid harmful stimulation as a normal response. Most of animals may be return to the copper curdles twice or even more times, but they will jump back to the platform swiftly as the results of electrical shock. Each test trail will be performed for 5 min. and two following indices will be used to represent the learning results: (I) the number of total error (EN) during the whole training period; (2) the reaction time (RT) for the first returning to the copper curdle in the trail. The trails will repeat again 24 hrs later as memory test.

| Molecule | Memory Results EN (Huperzine A 100 μg/kg) | Learning Results EN (Huperzine A 100 μg/kg, number of total errors) | Effect on memory and learning impediment induced by scopolamine, compared with model group (0.5 μg and 1 μg/kg, longer incubation period and lesser error numbers, P<0.01 vs model group) | Effect on scopolamine-induced memory and learning impediment compared with Huperzine A (0.5 μg/kg and 1 μg/kg versus Huperzine A 100 μg/kg) | Memory Results EN (drug dosage 0.25 μg/kg) | Memory Results RT (drug dosage 0.25 μg/kg) [s] | Learning Results EN (drug dosage 0.25 μg/kg) | Learning Results RT (drug dosage 0.25 μg/kg) [s] | Memory Results EN (drug dosage 0.5 μg/kg) | Memory Results RT (drug dosage 0.5 μg/kg) [s] | Learning Results EN (drug dosage 0.5 μg/kg) | Learning Results RT (drug dosage 0.5 μg/kg) [s] | Memory Results EN (drug dosage 1 μg/kg) | Memory Results RT (drug dosage 1 μg/kg) [s] | Learning Results EN (drug dosage 1 μg/kg) | Learning Results RT (drug dosage 1 μg/kg) [s] | Overall effect on memory and learning impediment induced by scopolamine (results of Table 1) (summary statement, no dose given) |
| --- | --- | --- | --- | --- | --- | --- | --- | --- | --- | --- | --- | --- | --- | --- | --- | --- | --- |
| C/C=C1\[C@H]2C=C(C)C[C@]1(N)c1ccc(=O)[nH]c1C2 [Huperzine A, reference compound] | 0.9 | 1.3 |  |  |  |  |  |  |  |  |  |  |  |  |  |  |  |
| PyroGlu—Asn—Cys(S—Bu^t)—Pro—Arg [MEP-531] |  |  | obviously improve the memory and learning impediment induced by scopolamine | better effects than Huperzine A | 0.9 | 197.6 | 0.3 | 78.8 | 0.5 | 245.5 | 0.2 | 241.6 | 0.3 | 282.8 | 0.3 | 267.6 | remarkably ameliorate the memory and learning impediment induced by scopolamine |
